Test results from PubChem BioAssay (NCI).
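Briefly, cells in 96-well plates were exposed to five compound concentrations for 48 h, and endpoints were estimated by linear interpolation. Here, GI50 denotes the concentration required for 50% inhibition of growth. TGI: concentration producing complete growth inhibition.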

Assays:
Test in all cases: inhibition of tumour cell growth, NCI panel, 48 h
[1] = system: HCC-2998 colon
[2] = system: 786-0 renal
[3] = system: UO-31 renal
[4] = system: NCI-H522 lung
[5] = system: OVCAR-8 ovarian
[6] = system: HCT-116 colon
[7] = system: UACC-257 melanoma
[8] = system: HOP-92 NSCLC
[9] = system: OVCAR-5 ovarian
[10] = system: KM12 colon
[11] = system: SF-268 CNS
[12] = system: SN12C renal
[13] = system: OVCAR-3 ovarian
[14] = system: ACHN renal
[15] = system: CCRF-CEM leukemia
[16] = system: UACC-62 melanoma
[17] = system: SK-MEL-28 melanoma
[18] = system: SNB-19 CNS
[19] = system: MDA-MB-231 breast
[20] = system: SK-MEL-2 melanoma
[21] = system: EKVX NSCLC
[22] = system: HOP-62 NSCLC
[23] = system: OVCAR-4 ovarian
[24] = system: A498 renal
[25] = system: SR leukemia
[26] = system: MCF7 breast
[27] = system: HS 578T breast
[28] = system: U251 CNS
[29] = system: IGROV1 ovarian
[30] = system: BT-549 breast
[31] = system: MDA-MB-468 breast
[32] = system: T-47D breast
[33] = system: M14 melanoma
[34] = system: SNB-75 CNS
[35] = system: MALME-3M melanoma
[36] = system: SK-OV-3 ovarian
[37] = system: PC-3 prostate
[38] = system: CAKI-1 renal
[39] = system: DU-145 prostate
[40] = system: K-562 leukemia
[41] = system: RPMI-8226 leukemia
[42] = system: HL-60(TB) leukemia
[43] = system: NCI/ADR-RES ovarian
[44] = system: RXF 393 renal
[45] = system: NCI-H226 lung
[46] = system: SW-620 colon
[47] = system: MDA-MB-435
[48] = system: HCT-15 colon
[49] = system: A549 NSCLC
[50] = system: NCI-H23 lung
[51] = system: NCI-H460 lung
[52] = system: LOX IMVI melanoma
[53] = system: TK-10 renal
[54] = system: MOLT-4 leukemia
[55] = system: SF-295 CNS
[56] = system: SF-539 CNS

## COc1ccc(N(C)c2cc(C#N)nc3ccccc23)cc1/C=C/C(=O)NO
[1]
  GI50: < 10 nM
  TGI: < 10 nM
[2]
  GI50: < 10 nM
  TGI: 15000 nM
[3]
  GI50: < 10 nM
  TGI: 12100 nM
[4]
  GI50: < 10 nM
  TGI: < 10 nM
[5]
  GI50: < 10 nM
[6]
  GI50: < 10 nM
  TGI: 1390 nM
[7]
  GI50: 1680 nM
  TGI: 20300 nM
[8]
  TGI: 9060 nM
[9]
  GI50: < 10 nM
  TGI: 10700 nM
[10]
  GI50: < 10 nM
  TGI: 1220 nM
[11]
  GI50: < 10 nM
  TGI: 14200 nM
[12]
  GI50: < 10 nM
  TGI: 5950 nM
[13]
  GI50: < 10 nM
  TGI: 6180 nM
[14]
  GI50: < 10 nM
  TGI: 11700 nM
[15]
  GI50: < 10 nM
[16]
  GI50: < 10 nM
  TGI: 2100 nM
[17]
  GI50: 551 nM
  TGI: 3720 nM
[18]
  GI50: < 10 nM
  TGI: 15100 nM
[19]
  GI50: < 10 nM
  TGI: < 10 nM
[20]
  GI50: < 10 nM
  TGI: 630 nM
[21]
  GI50: < 10 nM
  TGI: 13500 nM
[22]
  GI50: < 10 nM
  TGI: 15300 nM
[23]
  GI50: 1190 nM
  TGI: 16900 nM
[24]
  GI50: 15700 nM
  TGI: 54200 nM
[25]
  GI50: < 10 nM
[26]
  GI50: < 10 nM
  TGI: 17400 nM
[27]
  GI50: < 10 nM
  TGI: 9650 nM
[28]
  GI50: < 10 nM
  TGI: 9380 nM
[29]
  GI50: < 10 nM
  TGI: 4550 nM
[30]
  GI50: < 10 nM
  TGI: 1910 nM
[31]
  GI50: < 10 nM
  TGI: < 10 nM
[32]
  GI50: 2340 nM
  TGI: 80100 nM
[33]
  GI50: < 10 nM
  TGI: 1860 nM
[34]
  GI50: < 10 nM
  TGI: 2620 nM
[35]
  GI50: < 10 nM
  TGI: 8740 nM
[36]
  GI50: < 10 nM
  TGI: 12400 nM
[37]
  GI50: < 10 nM
  TGI: > 40800 nM
[38]
  GI50: < 10 nM
  TGI: 6220 nM
[39]
  GI50: < 10 nM
  TGI: 16800 nM
[40]
  GI50: < 10 nM
  TGI: > 40300 nM
[41]
  GI50: < 10 nM
  TGI: 19200 nM
[42]
  GI50: < 10 nM
  TGI: < 10 nM
[43]
  GI50: < 10 nM
  TGI: < 10 nM
[44]
  GI50: < 43.5 nM
  TGI: 3830 nM
[45]
  GI50: < 10 nM
  TGI: 5820 nM
[46]
  GI50: < 10 nM
  TGI: 15200 nM
[47]
  GI50: < 10 nM
  TGI: < 10 nM
[48]
  GI50: < 10 nM
  TGI: 19700 nM
[49]
  GI50: < 10 nM
  TGI: 22400 nM
[50]
  GI50: < 10 nM
  TGI: 1250 nM
[51]
  GI50: < 10 nM
  TGI: 3650 nM
[52]
  GI50: < 10 nM
  TGI: 1400 nM
[53]
  GI50: 2220 nM
  TGI: 57100 nM
[54]
  GI50: < 10 nM
  TGI: > 35900 nM
[55]
  GI50: < 10 nM
[56]
  GI50: < 10 nM
  TGI: < 10 nM
